Data: publication doi:10.1101/2024.06.25.600598v1 (biorxiv, 2024)
Where a name gives a salt, the structure may show the parent alone.

Columns and labels:
[1] = target: T1, fibroblast activation protein (FAP; rhFAP, SLIN-tagged hFAP) (Homo sapiens, UniProt Q12884); experiment: DIANA competition with DNA-linked probe, qPCR; type: binding
T1 sequence (Q12884 35-760): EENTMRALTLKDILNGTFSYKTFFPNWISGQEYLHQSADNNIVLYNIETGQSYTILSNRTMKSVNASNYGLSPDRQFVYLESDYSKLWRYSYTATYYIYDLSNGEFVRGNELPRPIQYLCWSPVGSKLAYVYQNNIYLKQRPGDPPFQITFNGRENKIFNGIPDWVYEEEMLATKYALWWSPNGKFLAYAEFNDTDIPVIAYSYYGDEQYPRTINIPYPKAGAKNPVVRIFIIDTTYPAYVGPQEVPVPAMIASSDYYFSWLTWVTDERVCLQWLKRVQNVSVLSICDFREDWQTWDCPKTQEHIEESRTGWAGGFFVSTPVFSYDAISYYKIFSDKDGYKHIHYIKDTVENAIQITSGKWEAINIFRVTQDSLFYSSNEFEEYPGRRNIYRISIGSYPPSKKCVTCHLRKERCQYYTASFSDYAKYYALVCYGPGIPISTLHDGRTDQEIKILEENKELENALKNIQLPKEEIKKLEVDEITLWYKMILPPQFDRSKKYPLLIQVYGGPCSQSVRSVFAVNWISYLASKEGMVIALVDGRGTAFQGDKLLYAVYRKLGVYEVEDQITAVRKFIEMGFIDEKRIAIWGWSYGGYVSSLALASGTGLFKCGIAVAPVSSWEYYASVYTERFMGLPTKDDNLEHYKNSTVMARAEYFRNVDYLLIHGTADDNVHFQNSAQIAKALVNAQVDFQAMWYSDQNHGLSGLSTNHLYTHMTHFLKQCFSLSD

[2] = target: T1, fibroblast activation protein (FAP; rhFAP, SLIN-tagged hFAP); experiment: biochemical
[3] = target: T1, fibroblast activation protein (FAP; rhFAP, SLIN-tagged hFAP); settings: 2 µM; inhibitor
[4] = target: T1, fibroblast activation protein (FAP; rhFAP, SLIN-tagged hFAP); experiment: fluorogenic AMC substrate activity assay; type: biochemical
[5] = target: T1, fibroblast activation protein (FAP; rhFAP, SLIN-tagged hFAP); experiment: biochemical; type: binding

Row | SMILES | Ki [1] [nM] | Ki [2] [µM] | Relative inhibition (%), activity assay [3] [%] | IC50 [4] [µM] | Ki [5] [nM]
1 | Cc1ccc(C)c(CNC(=O)C(=O)[C@@H]2CCCN2C(=O)CNC(=O)c2ccnc3ccccc23)c1 [6f] | 0.7 ± 0.1 |  |  |  | 
2 | CCOc1ccc(Nc2ccc(/C(=C3/C=CC(=[N+](CC)Cc4cccc(S(=O)(=O)[O-])c4)C=C3C)c3ccc(N(CC)Cc4cccc(S(=O)(=O)O)c4)cc3C)cc2)cc1 [Brilliant blue G-250] |  | 0.9 | 28 |  | 
3 | CNC(=O)c1ccc(-c2cnc3ncc(Cc4ccc5ncccc5c4)n3n2)cc1F [Capmatinib] |  | 3.3 | 27 |  | 
4 | CCOC(=O)n1ccn(C)c1=S [Carbimazole] |  | 7.9 | 26 |  | 
5 | CCN1CCN(C(=O)N[C@@H](C(=O)N[C@@H]2C(=O)N3C(C(=O)O)=C(CSc4nnnn4C)CS[C@H]23)c2ccc(O)cc2)C(=O)C1=O [Cefoperazone (sodium salt)] |  | 3.9 | 25 |  | 
6 | CC(=O)OCC1=C(C(=O)O)N2C(=O)[C@@H](NC(=O)CSc3ccncc3)[C@H]2SC1 [Cephapirin (sodium)] |  | 7.6 | 18 |  | 
7 | CCCC(=O)OCOC(=O)C1=C(C)NC(C)=C(C(=O)OC)C1c1cccc(Cl)c1Cl (stereo not shown) [Clevidipine] |  | 1.7 | 35 |  | 
8 | COc1cccc2c1C(=O)c1c(O)c3c(c(O)c1C2=O)C[C@@](O)(C(C)=O)C[C@@H]3O[C@H]1C[C@H](N)[C@H](O)[C@H](C)O1 [Daunorubicin (hydrochloride)] |  | 6.4 | 23 |  | 
9 | CC/C=C\C/C=C\C/C=C\C/C=C\C/C=C\C/C=C\CCC(=O)O [Docosahexaenoic acid] |  | 5.5 | 10 |  | 
10 | COc1ccc(-c2cc(=O)c3c(O)c(OC)c(O)cc3o2)cc1OC [Eupatilin] |  | 2 | 16 |  | 
11 | Cc1cc(-c2ccc(/N=N/c3ccc4c(S(=O)(=O)O)cc(S(=O)(=O)O)c(N)c4c3O)c(C)c2)ccc1/N=N/c1ccc2c(S(=O)(=O)O)cc(S(=O)(=O)O)c(N)c2c1O [Evans Blue] |  | 5.7 | 21 |  | 
12 | CCc1c(Cl)c(O)c(Cl)c(O)c1C(=O)O[C@H]1[C@H](O)[C@H](OC)[C@H](OC/C2=C\C=C\C[C@H](O)/C(C)=C/[C@H](CC)[C@@H](O[C@@H]3OC(C)(C)[C@@H](OC(=O)C(C)C)[C@H](O)[C@@H]3O)/C(C)=C/C(C)=C/C[C@@H]([C@@H](C)O)OC2=O)O[C@@H]1C [Fidaxomicin] |  | 6.9 | 10 |  | 
13 | O=C1OC2(c3ccc(O)cc3Oc3cc(O)ccc32)c2ccccc21 [Fluorescein (sodium)] |  |  |  | > 20 | 
14 | CCC1=C(C)CN(C(=O)NCCc2ccc(S(=O)(=O)NC(=O)N[C@H]3CC[C@H](C)CC3)cc2)C1=O [Glimepiride] |  | 8.8 | 16 |  | 
15 | CC(=O)[C@]1(O)Cc2c(O)c3c(c(O)c2[C@@H](O[C@H]2C[C@H](N)[C@H](O)[C@H](C)O2)C1)C(=O)c1ccccc1C3=O [Idarubicin (hydrochloride)] |  | 3.6 | 19 |  | 
16 | CC1(C)C(/C=C/C=C/C=C/C=C2\N(CCCCS(=O)(=O)O)c3ccc4ccccc4c3C2(C)C)=[N+](CCCCS(=O)(=O)[O-])c2ccc3ccccc3c21 [Indocyanine green] |  | 4.1 | 20 |  | 

Row | SMILES | Ki [1] [nM] | Ki [2] [µM] | Relative inhibition (%), activity assay [3] [%] | IC50 [4] [µM] | Ki [5] [nM]
17 | Cc1cnc(C(=O)N[C@H]2CCCCC/C=C\[C@@H]3C[C@@]3(C(=O)NS(=O)(=O)C3CC3)NC(=O)[C@@H]3C[C@@H](Oc4nc5ccccc5c5ccccc45)CN3C2=O)cn1 [Paritaprevir] |  | 9.7 | 35 |  | 
18 | COc1cccc2c1C(=O)c1c(O)c3c(c(O)c1C2=O)C[C@@](O)(C(=O)CO)C[C@@H]3O[C@H]1C[C@H](N)[C@H](O[C@@H]2CCCCO2)[C@H](C)O1 [Pirarubicin (Hydrochloride)] |  | 0.6 | 19 |  | 
19 | COc1ccc2nc3cc(Cl)ccc3c(Nc3cc(CN4CCCC4)c(O)c(CN4CCCC4)c3)c2n1 [Pyronaridine (tetraphosphate)] |  | 7.1 | 19 |  | 
20 | C[n+]1cc2c3c(ccc2c2ccc4cc5c(cc4c21)OCO5)OCO3 [Sanguinarine (chloride)] |  | 7.2 | 13 |  | 
21 | Cc1ccc(C(=O)Nc2ccc(S(=O)(=O)O)c3cc(S(=O)(=O)O)cc(S(=O)(=O)O)c23)cc1NC(=O)c1cccc(NC(=O)Nc2cccc(C(=O)Nc3cc(C(=O)Nc4ccc(S(=O)(=O)O)c5cc(S(=O)(=O)O)cc(S(=O)(=O)O)c45)ccc3C)c2)c1 [Suramin (sodium salt)] |  | 9.1 | 12 |  | 
22 | C=Cc1c(C)c2cc3nc(c(CC(=O)N[C@@H](CC(=O)O)C(=O)O)c4[nH]c(cc5nc(cc1[nH]2)C(C)=C5CC)c(C)c4C(=O)O)[C@@H](CCC(=O)O)[C@@H]3C [Talaporfin (sodium)] |  | 3 | 12 |  | 
23 | CCN(c1cc(-c2ccc(CN3CCOCC3)cc2)cc(C(=O)NCc2c(C)cc(C)[nH]c2=O)c1C)C1CCOCC1 [Tazemetostat (hydrobromide)] |  | 8.7 | 22 |  | 
24 | C[C@@H](O)[C@H]1C(=O)N2C(C(=O)OCOC(=O)C(C)(C)C)=C(SC3CN(C4=NCCS4)C3)[C@H](C)[C@H]12 [Tebipenem pivoxil] |  |  |  |  | 640
25 | CCN(CC)CCOc1ccc2c(c1)C(=O)c1cc(OCCN(CC)CC)ccc1-2 [Tilorone (dihydrochloride)] |  | 2.9 | 30 |  | 
26 | CN1CCN(c2ccc(Nc3ncc4cc5n(c4n3)C3(CCCCC3)CNC5=O)nc2)CC1 [Trilaciclib (hydrochloride)] |  | 5.9 | 19 |  | 
27 | COc1cc2/c(=N/c3ccc(Br)cc3F)nc[nH]c2cc1OCC1CCN(C)CC1 [Vandetanib] |  | 9.4 | 29 |  | 
28 | C=CC1=C(C)C2=Cc3c(C=C)c(C)c4[n]3[Fe]([Cl])[n]3c(c(C)c(CCC(=O)O)c3=CC3=NC(=C4)C(C)=C3CCC(=O)O)=CC1=N2 [hemin] |  |  |  |  | 600
29 | CC(C)(C)C(=O)OCOC(=O)[C@@H]1N2C(=O)[C@@H](N=CN3CCCCCC3)[C@H]2SC1(C)C [pivmecillinam] |  |  | 45 |  | 2200
30 | C=CC1=C(C)c2cc3[nH]c(cc4nc(cc5[nH]c(cc1n2)c(C)c5CCC(=O)O)C(CCC(=O)O)=C4C)c(C)c3C=C [protoporphyrin IX] |  |  | 46 |  | 800
31 | O=C1OC2(c3cc(I)c(O)c(I)c3Oc3c2cc(I)c(O)c3I)c2c(Cl)c(Cl)c(Cl)c(Cl)c21 [rose bengal] |  |  | 9 |  | 100
